Assay results from patent publication EP1096933B1, “USE OF AN INHIBITOR OF CYTOCHROME P450 OPTIONALLY COMBINED WITH AN ANTIFUNGAL AGENT FOR TREATING MYCOSES” (priority 1998, dated 2000).
Where two headings read alike, the source gives them in different places.

System: Trichophyton rubrum
Experiment: growth of strains streaked on Sabouraud agar containing the products
Assay type: cell-based
Details: Tric.Rubrum; for activity at 20 µg/mL: read-out: % DE CROISSANCE; for inhibition at 2 µg/mL / inhibition at 10 µg/mL / inhibition at 20 µg/mL / inhibition at 50 µg/mL: read-out: inhibition de la croissance
Experimental: Ces molécules ont été incorporées dans un milieu gélosé dit de Sabouraud (peptone 10g/l, glucose 10 g/l, gomme agar 15 g/l).
Des souches de diverses espèces de champignons ont été ensemencées par stries par la méthode de Stires.
Le pourcentage de croissance a été mesuré au cours du temps, pour des périodes allant jusqu'à 21 jours, pour certaines des souches testées.
Les quantités de pipéronyl butoxyde, et de cyclopyroxolamine utilisées sont identiques et sont de 10 ou 20 µg/ml dans le cas de l'association entre ces deux composés.
Dans le cas de l'association entre le pipéronyl butoxyde et l'éconazole, elles sont respectivement de 10 ou 20 µg/ml de pipéronyl butoxyde et de 1 µg/ml d'éconazole.
Des souches appartenant aux espèces suivantes ont été testées: Microsporum canis, Trichophyton rubrum, Trichophyton interdigitale, Trichophyton mentagrophytes, Microsporum persicolor, Epidermophyton floccosum, Trichophyton violaceum et Trichophyton soudanense.
L'activité du pipéronyl butoxyde seul a été testée à diverses concentrations, comme indiqué dans le tableau 1 sur le milieu de Sabouraud, dépourvu de tout autre fongicide.

## CCCCOCCOCCOCc1cc2c(cc1CCC)OCO2 [Piperonyl., pipéronyl butoxyde]
0 h, J0, 20µg/ml each product
  activity at 20 µg/mL: 0%
96 h, J4, 20µg/ml each product
  activity at 20 µg/mL: 0%
144 h, J6, 20µg/ml each product
  activity at 20 µg/mL: 20%
240 h, J10, 20µg/ml each product
  activity at 20 µg/mL: 35%
336 h, J14, 20µg/ml each product
  activity at 20 µg/mL: 50%
J+4, 2 µg/ml
  inhibition at 2 µg/mL: 15%
J+4, 10 µg/ml
  inhibition at 10 µg/mL: 10%
J+4, 20 µg/ml
  inhibition at 20 µg/mL: 0%
J+4, 50 µg/ml
  inhibition at 50 µg/mL: 0%
J+10, 2 µg/ml
  inhibition at 2 µg/mL: 90%
J+10, 10 µg/ml
  inhibition at 10 µg/mL: 60%
J+10, 20 µg/ml
  inhibition at 20 µg/mL: 35%
J+10, 50 µg/ml
  inhibition at 50 µg/mL: 0%
J+14, 2 µg/ml
  inhibition at 2 µg/mL: 100%
J+14, 10 µg/ml
  inhibition at 10 µg/mL: 75%
J+14, 20 µg/ml
  inhibition at 20 µg/mL: 50%
J+14, 50 µg/ml
  inhibition at 50 µg/mL: 0%
